Test results taken from article PMC6173696, “Structural properties of a haemophore facilitate targeted elimination of the pathogen Porphyromonas gingivalis” (Nature Communications, 2018).

How the values were obtained:
[1] = test system: P. gingivalis wild-type W83; assay: Checkerboard / broth micro-dilution assay (MIC, MBC), wild-type W83; type: cell-based, Porphyromonas gingivalis; settings: Porphyromonas gingivalis; planktonic W83, 24 h, anaerobic; read-out: minimal inhibitory concentration
Source text: Fig. 5 A prototype DPIX-conjugated antibiotic binds HusA and inhibits P. gingivalis. a The chemical structure of the deuteroporphyrin-lysine-metronidazole adduct, P8. b NMR signal intensity changes (black) and ^1H^N CSPs (red/green) for HusA upon addition of P8 (measured from ^15N-HSQC spectra shown in Supplementary Figure 21). c In silico docking of P8 to the energy minimized structure of HusA (conformer set 1), with residues experiencing NMR signal loss (orange) or CSPs (red/green) mapped to the structure (colouring as described in Fig. 2d). d Scaled and corrected fluorescence at 335 nm during titration of 1 μM of HusA with increasing concentrations of P8, haemin or DPIX. e Comparison of P8 inhibitory effect towards P. gingivalis wild-type W83 and husA mutants using checkerboard analysis. Serial dilutions of antibiotics (horizontal axis) were applied to a 96-well plate with different P. gingivalis strains (vertical axis). Serial dilutions of DPIX were also supplemented into wild-type W83 group to evaluate the competitive effect against P8. Absorption at OD600 of each well was recorded after 24 h of incubation. The OD600 of each strain grown in the absence of antibiotics was defined as 100% growth, which was applied to normalise the reading collected from other wells. The normalised percentage of each well was plotted in the checkerboard. Metronidazole alone and in combination with PPIX or DPIX was applied as control. f Intracellular killing assay of P8 antibiotics. Gingival H413 epithelial cells were infected by P. gingivalis W83 and then treated with P8 at various concentrations. Recovered bacteria were determined by CFU count. Metronidazole and DMSO were used as control. Three independent experiments with triplicate assays were conducted. […]

P. gingivalis W83 = assay: Growth of starved W83 with titration of dipyridyl; type: cell-based, Porphyromonas gingivalis
Source text: This manuscript further describes HusA protein. Although very sophisticated methods were used and interesting results were gained, this study requires more work to be convincing. The conclusions drawn (mainly regarding the possibility that porphyrin-metronidazole conjugate could be used to treat P. gingivalis infection) are very strong but not supported enough by the data presented.
- How is this possible that P. gingivalis grows in the culture medium lacking iron (dipyridyl added) and supplemented with porphyrins without metal inside the porphyrin ring (Fig 1, panel A)? What serves as an iron source allowing P. gingivalis to grow? Were the bacteria starved before these experiments? Please explain this more carefully.
Response: We agree with the reviewer that P. gingivalis requires both iron and porphyrin to survive. Iron is naturally present in the complex medium, enriched tryptic soy broth (eTSB), used in this study. The iron concentration of TSB medium has been previously determined at 0.74 µg/mL by atomic absorption spectrophotometry (de Oliverira Moreira L., et al., 2003 AEM) which requires approximately 500 µM dipyridyl to chelate all available iron in the medium (Scharfman AH 1996 I&I). The dipyridyl used in this study is 100 µM and the remaining iron provided by the TSB medium is sufficient to support P. gingivalis growth. […]

HusA [2] = molecular target: T1, HusA (Porphyromonas gingivalis, UniProt Q7MSY3); assay: Tryptophan fluorescence quenching assay, HusA wild-type; type: binding; settings: HusA wild-type 1 µM, fit to 1:1 binding model; read-out: Kd
T1 sequence (Q7MSY3 24-218): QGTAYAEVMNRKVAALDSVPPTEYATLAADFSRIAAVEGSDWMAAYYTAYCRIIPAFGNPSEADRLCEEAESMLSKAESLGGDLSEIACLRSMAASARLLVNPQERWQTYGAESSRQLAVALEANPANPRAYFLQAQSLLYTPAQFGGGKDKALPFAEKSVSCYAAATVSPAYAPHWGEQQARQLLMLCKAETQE
Method: The quenching of intrinsic tryptophan fluorescence of HusA upon porphyrin additions was measured using a Carey Eclipse Fluorescence Spectrophotometer (Agilent) set to a photo multiplier effect (PME) of 850. A 5-mm path length quartz cuvette was used and all spectra were acquired at room temperature. Excitation was set to 295 nm and emission was measured from 300 nm to 500 nm using excitation/emission slit widths of 5 nm. Binding assays were performed at a protein concentration of 1 μM HusA in standard buffer at a working volume of 0.5 mL. […] The fluorescence quenching of HusA by PPIX was investigated in a similar manner with the following difference: the fluorescence intensities of ten 1 μM HusA samples were measured each with increasing amounts of PPIX after a 2-h incubation period to allow equilibrium to be reached. See Supplementary Methods for correction for inner filter effect and curve fitting. […]
Correction of inner filter effect and curve fitting in tryptophan fluorescence quenching assays The concentration of NATA was chosen such that the raw fluorescence intensity was similar to the […] concentrations of HusA and mutants used. The same molarity titrants of porphyrin were titrated into NATA as were added into HusA in the control reactions. Fluorescence intensity was scaled with respect to the starting florescence and corrected for the inner filter effect. Fluorescence at 335 nm was used to fit binding curves.
The correction method is based on Fonin AV., et al.26, noting that a Cary Eclipse spectrofluorimeter […]
performed to measure the contribution to the decrease in fluorescence due to the inner filter effect and this effect was scaled to the starting fluorescence values as fractional changes. The measured fluorescence at each titration point for each of the porphyrin titrations into protein was then adjusted for this contribution. Fluorescence at 335 nm was used to fit binding curves. Association constant, Ka, was fitted using the following equation in Origin, assuming a single binding site. A dissociation constant, Kd, was calculated by taking the inverse of the Ka.
Xobs = XA×f A+XAB×f AB (1) where XA is the corrected fluorescence, fA=1-fAB, fAB=x/(Bt), x=(-b-sqrt(b2-4×c))/2, b=-(1/Ka+At+Bt), c=Bt×At, Bt=total concentration of protein, At=total concentration of ligand.
To aid comparison of the different titrations, the corrected fluorescence was scaled to the starting fluorescence in the absence of porphyrins (i.e. all fluorescence curves have a starting value of one

HusA [3] = molecular target: T1, HusA; assay: UV-visible absorption spectral analysis of ligand interaction with HusA; type: binding
Method: All absorbance spectra were recorded at room temperature using 10-mm quartz cuvettes on a Shimadzu UV-1601 or Jasco V-630 spectrophotometer. Mixtures of HusA/mutant with porphyrins were prepared by dissolving porphyrin stocks in standard buffer to a final concentration of 5–20 μM with a 1–1.5 molar ratio of protein to porphyrin, as specified in the relevant figure legends. PPIX:HusA mixtures were prepared by incremental addition of 2–4 μM HusA with a 10–15 min wait after each addition of HusA.

[4] = test system: P. gingivalis wild-type W83; assay: Checkerboard analysis of metronidazole with PPIX or DPIX, iron-replete and -limited; type: cell-based, Porphyromonas gingivalis; settings: iron replete or iron-limited conditions
Method: Supplementary Figure 24. Comparison of metronidazole inhibitory effect towards P. gingivalis wild-type W83 in the presence of PPIX or DPIX under iron-replete and -limited conditions by checkerboard analysis. Serial dilutions of antibiotics along the horizontal axis were applied to a 96-well plate with P. gingivalis W83. Two pre-determined concentrations of PPIX or DPIX were supplemented to evaluate the synergistic effect between metronidazole and porphyrins. Dipyridyl (at 100 µM) was also applied to explore the potential effect under iron-replete and iron-depleted conditions. Absorption at OD600 of each well was recorded after 24 h of incubation. The OD600 of each strain grown in the absence of antibiotics was defined as 100% growth which was applied to normalise the reading collected from other wells. The normalised percentage of each well was plotted […]
(1 picture or pasted object on this page, not shown here)

| Structure (SMILES) | Kd (HusA [2]) [µM] | interaction with HusA by UV-visible absorption (HusA [3]) | also measured |
| --- | --- | --- | --- |
| Cc1ncc([N+](=O)[O-])n1CCO [Metronidazole, metronidazole] | – | – | MIC [1]: 5 to 10 µM |
| c1ccc(-c2ccccn2)nc1 [dipyridyl, 2,2’-dipyridyl] | – | – | dipyridyl concentration at which growth recovery after starvation was observed (P. gingivalis W83): up to 200 µM; dipyridyl concentration at which P. gingivalis failed to recover (P. gingivalis W83; W83 after starvation): ≥ 500 µM |
| CC1=Cc2cc3[n-]c(cc4[n-]c(cc5nc(cc1n2)C=C5C)c(C)c4CCC(=O)[O-])c(CCC(=O)[O-])c3C.[Fe+2].[H+].[H+] [Fe(III)DPIX, iron(III) deuteroporphyrin IX] | 0.22 ± 0.05 | – | – |
| C=CC1=C(C)/C(=C/C2=NC(=C\c3[nH]c(/C=C4\NC(=O)C(C)=C4C=C)c(C)c3CCC(=O)O)/C(CCC(=O)O)=C2C)NC1=O [biliverdin] | – | no interaction | – |
| C=CC1=C(C)/C(=C/c2[nH]c(Cc3[nH]c(/C=C4\NC(=O)C(C)=C4C=C)c(C)c3CCC(=O)O)c(CCC(=O)O)c2C)NC1=O [bilirubin] | – | no interaction | – |
| C=CC1=C(C)c2cc3[nH]c(cc4nc(cc5[nH]c(cc1n2)c(C)c5CCC(=O)O)C(CCC(=O)O)=C4C)c(C)c3C=C [PPIX, protoporphyrin-IX] | 1.9 ± 0.6 | – | sensitisation of P. gingivalis cells towards metronidazole [4]: Neither PPIX nor DPIX sensitised |
